Data from patent publication US12466832B2, “Monohydrate and crystalline forms of 6-[(3S,4S)-4-methyl-1-(pyrimidin-2-ylmethyl)pyrrolidin-3-yl]-3-tetrahydropyran-4-yl-7H-imidazo[1,5-a]pyrazin-8-one” (Cardurion Pharmaceuticals, Inc., priority 2018, dated 2025).
In brackets after ≈: the same amount, converted by molar mass. Entries after “also recorded” stand apart in the source; their conditions may differ.

What was measured:
Type in all cases: physicochemical
[1] = Drying investigation of the two hydrates (vacuum oven, XRPD and TGA)
Method: Procedure: MH1 and MH2 were placed in a vacuum oven at 50° C. and RT for 24 h. The samples were then analysed by TGA and XRPD immediately after removal and after 4 hours standing under ambient conditions.

[2] = Thermodynamic aqueous solubility; details: thermodynamic from solid, water, 25° C.
Method: Aqueous solubility was determined by suspending sufficient compound in relevant media to give a maximum final concentration of ≥200 mg/ml of the parent freeform of the compound. The suspension was equilibrated at 25° C., on a Heidolph plate shaker set to 750 rpm for 24 hours. The pH of the saturated solution was then measured and the suspension filtered through a glass fibre C filter (particle retention 1.2 μm) and diluted appropriately. Quantitation was by HPLC with reference to a standard solution of approximately 0.15 mg/ml in DMSO. Different volumes of the standard, diluted and undiluted sample solutions were injected.
The solubility was calculated using the peak areas determined by integration of the peak found at the same retention time as the principal peak in the standard injection.
Analysis was performed on an Agilent HP1100 series system equipped with a diode array detector and using ChemStation software.

[3] = Solubility repeat at pH 1.2 (reverse addition); details: pH 1.2 buffered media, pH maintained at 1.2, reverse addition
Method: Procedure: pH 1.2 buffered media (0.4 ml) was added to two separate 7 ml vials. For each compound, material was added in portions to the pH 1.2 media. After each addition of compound, the vial was vortex mixed and the pH and appearance was recorded. The samples were adjusted to pH 1.2 with 1M HCl to within 0.05 of the desired pH unit. This was repeated until no further material was available (˜400 mg for each form, which would give a maximum concentration of around 1000 mg/ml if no adjustment was required).

[4] = XRPD under vacuum
Method: For vacuum experiments the samples were prepared and analysed in an Anton Paar chromed sample holder. The measurement parameters are as per the standard screening data collection method (detailed above), at 25° C. with no vacuum (I2). A vacuum of around 50 mbar was then applied and the sample measured every 5 min until the anhydrate pattern was obtained for three consecutive measurements (to ensure complete dehydration, up to sample I8). The vacuum was then released and the sample analysed every 5 min for 6 measurements (until sample I22). The sample was then reanalyzed by XRPD after 1 h to check for complete rehydration.
MH1 was analysed at 25° C. with no vacuum. A vacuum of around 50 mbar was then applied and the sample measured every 5 min until the anhydrate pattern was obtained for three consecutive measurements (to ensure complete dehydration). The vacuum was then released and the sample analysed every 5 min for 6 measurements before the front of the sample stage was removed.
(§1) Procedure: A second batch of MH2 material was prepared using the same procedure. This sample was then analysed by VTXRPD and by XRPD under vacuum.

[5] = pH profiling solubility experiments; details: 25 °C, thermodynamic from solid
Method: Procedure: pH profiling solubility experiments were performed on MH1 and MH2. Solubility was determined in singlicate by suspending sufficient compound in relevant media (1.00 ml) to give a maximum final concentration as shown in the Table 17.
The suspensions were equilibrated at 25° C., on a Heidolph plate shaker set to 750 rpm for 24 hours. Samples were pH adjusted as required using 0.5M/1M HCl and 0.2M NaOH to within 0.1 of the desired pH unit (where possible). The pHs of the saturated solutions were measured (where applicable) and an appearance was recorded. The suspensions were filtered through a glass fibre C filter (particle retention […]) and diluted appropriately. Quantitation was by HPLC with reference to a standard solution of approximately 0.15 mg/ml in DMSO. Different volumes of the standard, diluted and undiluted sample solutions were injected. The solubility was calculated using the peak areas determined by integration of the peak found at the same retention time as the principal peak in the standard injection.

[6] = Gravimetric Vapour Sorption (GVS)
Method: Sorption isotherms were obtained using a SMS DVS Intrinsic moisture sorption analyzer, controlled by DVS Intrinsic Control software. The sample temperature was maintained at 25° C. by the instrument controls. The humidity was controlled by mixing streams of dry and wet nitrogen, with a total flow rate of 200 ml/min. The relative humidity was measured by a calibrated Rotronic probe (dynamic range of 1.0-100% RH), located near the sample. The weight change, (mass relaxation) of the sample as a function of % RH was constantly monitored by a microbalance (accuracy ±0.005 mg).
Typically, 5-30 mg of sample was placed in a tared mesh stainless steel basket under ambient conditions. The sample was loaded and unloaded at 40% RH and 25° C. (typical room conditions). A moisture sorption isotherm was performed as outlined below (2 scans per complete cycle). The standard isotherm was performed at 25° C. at 10% RH intervals over a 0-90% RH range. Typically, a double cycle (4 scans) was carried out. Data analysis was carried out within Microsoft Excel using the DVS Analysis Suite.
The sample was recovered after completion of the isotherm and re-analyzed by XRPD.

[7] = Variable temperature XRPD (VT XRPD)
Method: For variable temperature (VT) experiments the samples were prepared and analysed in an Anton Paar chromed sample holder. A heating/cooling rate of 10° C./min was used with a 2 min isothermal hold before the measurement started. The measurement parameters are as per the standard screening data collection method (detailed above). Measurements were taken at the following temperatures: 25, 50, 75, 100, 160, and 25° C. The sample was then reanalyzed by XRPD after 1 h to check for complete rehydration.
MH1 was analysed at 25, 50, 75, 100, 160 and 25° C. (10° C./min heating rate and a 2 min wait before the measurement started) on the Empyrean. The sample was then reanalysed by XRPD after 10 and 20 min to check for rehydration.
as §1

C[C@@H]1CN(Cc2ncccn2)C[C@H]1c1cn2c(C3CCOCC3)ncc2c(=O)[nH]1 [MH2, 6-[(3S,4S)-4-methyl-1-(pyrimidin-2-ylmethyl)pyrrolidin-3-yl]-3-tetrahydropyran-4-yl-7H-imidazo[1,5-a]pyrazin-8-one]
XRPD (T = 0, 50° C.) ([1]; vacuum oven 50° C. 24 h, immediately after removal): Matches MH1 and AH
TGA (T = 0, 50° C.) ([1]; vacuum oven 50° C. 24 h, immediately after removal, lost between 25 and 100° C.): 0.6% w/w lost between
TGA (T = 4 h, 50° C.) ([1]; vacuum oven 50° C. 24 h, then 4 hours ambient, lost between 25 and 100° C.): 1.9% w/w lost between
XRPD (T = 4 h, 50° C.) ([1]; vacuum oven 50° C. 24 h, then 4 hours at ambient conditions): Matches MH1
XRPD (T = 0, RT) ([1]; vacuum oven RT 24 h, immediately after removal): Matches MH1 and AH
TGA (T = 0, RT) ([1]; vacuum oven RT 24 h, immediately after removal, lost between 25 and 100° C.): 0.2% w/w lost between
TGA (T = 4 h, RT) ([1]; vacuum oven RT 24 h, then 4 hours ambient, lost between 25 and 100° C.): 1.9% w/w lost between
XRPD (T = 4 h, RT) ([1]; vacuum oven RT 24 h, then 4 hours at ambient conditions): Matches MH1
solubility thermodynamic at 24 h [2]: 36.5 mg/mL (≈ 92.5 mM)
Solubility at pH 1.2 [3]: >161 mg/ml
Final XRPD pattern after vacuum released ([4]; data collected for 55 minutes after release): mixture of AH and MH1
Form by XRPD on reanalysis ([4]; reanalyzed after 1 h): complete rehydration to MH 1
Time under vacuum to conversion to the anhydrate by XRPD ([4]; vacuum of around 50 mbar, 25° C.): 5 min
solubility at 24 h ([5]; pH 1.2 media, pH 1.2, simulated gastric fluid, media pH 1.2, 25° C., pH not maintained, final pH 5.02 (MH1-A), 6.63 (MH2-A)): > 275 mg/mL
solubility at 24 h ([5]; pH 4.0 media, pH 4, aqueous buffer, media pH 4.0, 25° C.): > 99 mg/mL
solubility at 24 h ([5]; pH 6.5 media, pH 6.5, aqueous buffer, media pH 6.5, 25° C.): > 147 mg/mL
solubility at 24 h ([5]; pH 7.5 media, pH 7.5, aqueous buffer, media pH 7.5, 25° C.): 58 mg/mL (≈ 147 mM)
GVS first sorption cycle uptake ([6]; 40 to 90% RH, 25° C.): lack of uptake; also recorded: First sorption cycle from 40 to 90% RH, no uptake
XRPD post-GVS ([6]; solid form after GVS): rehydrated as MH1; also recorded: Crystalline - Matches MH1
Form by VT XRPD upon heating ([7]; 50° C.): mixture of MH2 and AH
Form by VT XRPD upon heating ([7]; 75° C.): complete conversion to AH
Form by VT XRPD after cooling back ([7]; re-cooled to 25° C.): completely transformed into MH1

C[C@@H]1CN(Cc2ncccn2)C[C@H]1c1cn2c(C3CCOCC3)ncc2c(=O)[nH]1 [anhydrate, 6-[(3S,4S)-4-methyl-1-(pyrimidin-2-ylmethyl)pyrrolidin-3-yl]-3-tetrahydropyran-4-yl-7H-imidazo[1,5-a]pyrazin-8-one]
Conversion under ambient conditions ([4]; after vacuum XRPD, ambient air): readily converts to MH1
Conversion under ambient conditions ([7]; after VT XRPD, standing at 25° C.): readily converts to MH1
